Measurements: ChEMBL document CHEMBL4477272, “Toward chelerythrine optimization: Analogues designed by molecular simplification exhibit selective growth inhibition in non-small-cell lung cancer cells” (Bioorg Med Chem, 2016)
Activity calls are given as the source filed them. The calls are words filed in the database; no cut-off is given here.

Key:
[1] = Cytotoxicity against human LL24 cells assessed as reduction in cell viability after 24 hrs by MTT assay; type: cell-based; details: LL24, 24 h
[2] = tested on: NCI-H460; experiment: Cytotoxicity against human NCI-H460 cells assessed as reduction in cell viability after 24 hrs by MTT assay; type: functional, cell-based; details: NCI-H460, 24 h
[3] = tested on: NCI-H1299; experiment: Cytotoxicity against human NCI-H1299 cells assessed as reduction in cell viability after 24 hrs by MTT assay; type: functional, cell-based; details: NCI-H1299, 24 h
[4] = tested on: A549; experiment: Cytotoxicity against human A549 cells assessed as reduction in cell viability after 24 hrs by MTT assay; type: functional, cell-based; details: A549, 24 h
[5] = tested on: HUVEC; experiment: Cytotoxicity against HUVEC assessed as reduction in cell viability after 24 hrs by MTT assay; type: cell-based; details: Homo sapiens
[6] = tested on: NCI-H292; experiment: Cytotoxicity against human NCI-H292 cells assessed as reduction in cell viability after 24 hrs by MTT assay; type: functional, cell-based; details: NCI-H292, 24 h
[7] = Selectivity index, ratio of IC50 for human LL24 cells to IC50 for human NCI-H1299 cells
[8] = Selectivity index, ratio of IC50 for HUVEC to IC50 for human NCI-H1299 cells; type: toxicity; details: HUVEC versus NCI-H1299 cells, read-out: Ratio IC50
[9] = Selectivity index, ratio of IC50 for human LL24 cells to IC50 for human A549 cells
[10] = Selectivity index, ratio of IC50 for HUVEC to IC50 for human A549 cells; type: toxicity; details: HUVEC versus A549 cells, read-out: Ratio IC50
[11] = Selectivity index, ratio of IC50 for human LL24 cells to IC50 for human NCI-H292 cells
[12] = Selectivity index, ratio of IC50 for HUVEC to IC50 for human NCI-H292 cells
[13] = Selectivity index, ratio of IC50 for human LL24 cells to IC50 for human NCI-H460 cells
[14] = Selectivity index, ratio of IC50 for HUVEC to IC50 for human NCI-H460 cells; type: toxicity; details: HUVEC versus NCI-H460 cells, read-out: Ratio IC50
[15] = tested on: A549; experiment: Cell cycle arrest in human A549 cells assessed as decrease in G2/M phase at 50 to 100 uM after 24 hrs by propidium iodide staining based flow cytometry; type: functional
[16] = tested on: A549; experiment: Cell cycle arrest in human A549 cells assessed as decrease in S phase at 50 to 100 uM after 24 hrs by propidium iodide staining based flow cytometry; type: functional
[17] = tested on: A549; experiment: Cell cycle arrest in human A549 cells assessed as accumulation at G0/G1 phase after 24 hrs by propidium iodide staining based flow cytometry; type: functional
[18] = tested on: NCI-H1299; experiment: Cell cycle arrest in human NCI-H1299 cells assessed as accumulation at S phase at 50 uM after 24 hrs by propidium iodide staining based flow cytometry (reference value: 7.8%); type: functional
[19] = tested on: NCI-H1299; experiment: Cell cycle arrest in human NCI-H1299 cells assessed as accumulation at G0/G1 phase after 24 hrs by propidium iodide staining based flow cytometry; type: functional
[20] = tested on: A549; experiment: Cell cycle arrest in human A549 cells assessed as accumulation at G0/G1 phase at 75 uM after 24 hrs by propidium iodide staining based flow cytometry (reference value: 33.4%); type: functional
[21] = tested on: NCI-H1299; experiment: Cell cycle arrest in human NCI-H1299 cells assessed as accumulation at S phase at 75 uM after 24 hrs by propidium iodide staining based flow cytometry (reference value: 7.8%); type: functional
[22] = tested on: NCI-H1299; experiment: Cell cycle arrest in human NCI-H1299 cells assessed as accumulation at S phase at 100 uM after 24 hrs by propidium iodide staining based flow cytometry (reference value: 7.8%); type: functional
[23] = tested on: NCI-H1299; experiment: Cytostatic activity against human NCI-H1299 cells assessed as inhibition of colony formation after 24 hrs measured after 10 days by crystal violet staining based method; type: functional, cell-based
[24] = tested on: NCI-H1299; experiment: Cell cycle arrest in human NCI-H1299 cells assessed as accumulation at G0/G1 phase at 100 uM after 24 hrs by propidium iodide staining based flow cytometry (reference value: 39%); type: functional
[25] = tested on: A549; experiment: Cell cycle arrest in human A549 cells assessed as accumulation at G0/G1 phase at 50 uM after 24 hrs by propidium iodide staining based flow cytometry (reference value: 33.4%); type: functional
[26] = tested on: NCI-H1299; experiment: Cell cycle arrest in human NCI-H1299 cells assessed as accumulation at G0/G1 phase at 50 uM after 24 hrs by propidium iodide staining based flow cytometry (reference value: 39%); type: functional
[27] = tested on: NCI-H1299; experiment: Cell cycle arrest in human NCI-H1299 cells assessed as accumulation at G0/G1 phase at 75 uM after 24 hrs by propidium iodide staining based flow cytometry (reference value: 39%); type: functional
[28] = tested on: A549; experiment: Cytostatic activity against human A549 cells assessed as inhibition of colony formation after 24 hrs measured after 10 days by crystal violet staining based method; type: functional, cell-based
[29] = tested on: A549; experiment: Cell cycle arrest in human A549 cells assessed as accumulation at G0/G1 phase at 100 uM after 24 hrs by propidium iodide staining based flow cytometry (reference value: 33.4%); type: functional

Structure (SMILES) | IC50 [1] [µM] | IC50 [2] [µM] | IC50 [3] [µM] | IC50 [4] [µM] | IC50 [5] [µM] | IC50 [6] [µM] | Ratio IC50 [7] | selectivity ratio [8] | Ratio IC50 [9] | selectivity ratio [10] | also measured
COc1ccc(CNCc2ccc3c(c2)OCO3)cc1O | > 200 | > 200 | > 200 | > 200 | > 200 | > 200 |  |  |  |  | 
COc1cc(CN(C)Cc2ccc3c(c2)OCO3)cc(OC)c1OC | > 200 | > 200 | > 200 | > 200 | > 200 | > 200 |  |  |  |  | 
COc1ccc(CN(C)Cc2ccc3c(c2)OCO3)cc1.Cl | > 200 | > 200 | 76.4 | > 200 | > 200 | > 200 | >2.62 | > 2.62 |  |  | 
CN(Cc1ccccc1)Cc1ccc2c(c1)OCO2.Cl | > 200 | > 200 | 91.2 | > 200 | > 200 | > 200 | >2.19 | > 2.19 |  |  | 
COc1ccc(CNCc2ccc3c(c2)OCO3)cc1OC.Cl | > 200 | > 200 | 92.3 | 118 | > 200 | > 200 | >2.17 | > 2.17 | >1.69 | > 1.69 | 
COc1ccc2c(c[n+](C)c3c4cc5c(cc4ccc23)OCO5)c1OC [CHELERYTHRINE] | 3.73 | 5.14 | 4.28 | 7.73 | 4.93 | 4.96 | 0.87 | 1.15 | 0.48 | 0.64 | Ratio IC50 [11]: 0.75; Ratio IC50 [12]: 0.99; Ratio IC50 [13]: 0.73; selectivity ratio [14]: 0.96
COc1cc(CNCc2ccc3c(c2)OCO3)cc(OC)c1OC.Cl | > 200 | > 200 | 107 | > 200 | > 200 | > 200 | >1.88 | > 1.88 |  |  | 
Cl.Oc1ccc(CNCc2ccc3c(c2)OCO3)cc1O | > 200 | > 200 | > 200 | 112 | > 200 | > 200 |  |  | >1.78 | > 1.78 | Activity [15]: Active; Activity [16]: Active; Activity [17]: Dose-dependent effect; Activity [18]: 26.8%; Activity [19]: Dose-dependent effect; Activity [20]: 49.6%; Activity [21]: 20.4%; Activity [22]: 17.7%; inhibition [23]: Dose-dependent effect; Activity [24]: 55.8%; Activity [25]: 45.9%; Activity [26]: 53.5%; Activity [27]: 65%; inhibition [28]: Dose-dependent effect; Activity [29]: 54.3%
Cl.c1ccc(CNCc2ccc3c(c2)OCO3)cc1 | > 200 | > 200 | 67.2 | > 200 | > 200 | > 200 | >2.98 | > 2.98 |  |  | 
COc1ccc(CN(C)Cc2ccc3c(c2)OCO3)cc1OC | > 200 | > 200 | > 200 | > 200 | > 200 | > 200 |  |  |  |  | 
COc1ccc(CNCc2ccc3c(c2)OCO3)cc1.Cl | > 200 | > 200 | 73.7 | 124 | > 200 | 153 | >2.71 | > 2.71 | >1.61 | > 1.61 | Ratio IC50 [11]: >1.31; Ratio IC50 [12]: >1.31
